# Measured values taken from patent publication US8183236B2, “Compounds with HIV-1 integrase inhibitory activity and use thereof as anti-HIV/AIDS therapeutics” (University of Southern California, priority 2007, dated 2012).
# Tests used:
# [1] = molecular target: T1, HIV-1 integrase (wild-type IN) (Human immunodeficiency virus type 1 group M subtype B, UniProt P12497); assay: HIV-1 integrase 3′-processing assay (32P-labeled 21-mer, gel); format: biochemical
# Excerpt: (§1) The oligonucleotides 21 top, 5′-[…]-3′ (SEQ ID NO:1) and 21 bot, 5′-[…]-3′ (SEQ ID NO:2) were purchased from Norris Cancer Center Core Facility (University of Southern California) and purified by UV shadowing on polyacrylamide gel. To analyze the extent of 3′-processing and strand transfer using 5′-end labeled substrates, 21 top was 5′-end labeled using T4 polynucleotide kinase (Epicentre, Madison, Wis.) and γ [^32P]-ATP (Amersham Biosciences or ICN). The kinase was heat-inactivated and 21 bot was added in 1.5-molar excess. The mixture was heated at 95° C., allowed to cool slowly to room temperature, and run through a spin 25 mini-column (USA Scientific) to separate annealed double-stranded oligonucleotide from unincorporated material.
# (§2) To determine the extent of 3′-processing and strand transfer, wild-type IN was preincubated at a final concentration of 200 nM with the inhibitor in reaction buffer (50 mM NaCl, 1 mM HEPES, pH 7.5, 50 μM EDTA, 50 μM dithiothreitol, 10% glycerol (w/v), 7.5 mM MnCl2, 0.1 mg/ml bovine serum albumin, 10 mM 2-mercaptoethanol, 10% dimethyl sulfoxide, and 25 mM MOPS, pH 7.2) at 30° C. for 30 min. Then, 20 nM of the 5′-end ^32P-labeled linear oligonucleotide substrate was added, and incubation was continued for an additional one hour. Reactions were quenched by the addition of an equal volume (16 μl) of loading dye (98% deionized formamide, 10 mM EDTA, 0.025% xylene cyanol and 0.025% bromophenol blue). An aliquot (5 μl) was electrophoresed on a denaturing 20% polyacrylamide gel (0.09 M tris-borate pH 8.3, 2 mM EDTA, 20% acrylamide, 8M urea).
# (§3) Gels were dried, exposed in a PhosphorImager cassette, and analyzed using a Typhoon 8610 Variable Mode Imager (Amersham Biosciences) and quantitated using ImageQuant 5.2. Percent inhibition (% I) was calculated using the following equation: %I=100×[1−(D−C)/(N−C)]
# (§4) where C, N, and D are the fractions of 21-mer substrate converted to 19-mer (3′-processing product) or strand transfer products for DNA alone, DNA plus IN, and IN plus drug, respectively. The IC50 values were determined by plotting the logarithm of drug concentration versus percent inhibition to obtain concentration that produced 50% inhibition. […]
# [2] = molecular target: T1, HIV-1 integrase (wild-type IN); assay: HIV-1 integrase strand transfer assay (32P-labeled 21-mer, gel); format: biochemical
# Excerpt: as §1, §2, §3, §4
# [3] = unit inferred, read-out: IN inhibition activity 3′-processing
# [4] = unit inferred, read-out: IN inhibition activity Strand transfer
# [5] = wild-type IN 200 nM, 7.5 mM MnCl2, read-out: Inhibition of IN Catalytic Activities IC50 (μM) 3′-processing
# [6] = wild-type IN 200 nM, 7.5 mM MnCl2, read-out: Inhibition of IN Catalytic Activities IC50 (μM) Strand Transfer
# [7] = unit inferred, read-out: HIV-1 IN Inhibitory Activities 3′-processing
# [8] = unit inferred, read-out: HIV-1 IN Inhibitory Activities Strand transfer
Structure (SMILES),"IC50 [1, 3] [µM]","IC50 [2, 4] [µM]","IC50 [1, 5] [µM]","IC50 [2, 6] [µM]","IC50 [1, 7] [µM]","IC50 [2, 8] [µM]"
CC1=C(C#N)c2nc(N)c(C#N)c(C)c2/C1=C/c1ccc(-c2ccccc2C(=O)O)o1 [AV15A54],> 100,> 100,,,,
O=C(O)c1cccc(-c2ccc(/C=N/Nc3nc4nonc4nc3Nc3ccc(F)cc3)o2)c1 [AV30],10 ± 3,4 ± 1,10,4,,
CC(C)(C)c1ccc(C2C(C(=O)c3ccc(F)cc3)=C(O)C(=O)N2c2nncs2)cc1 (stereo not shown) [Compound M28A2],64 ± 28,43 ± 8,,,,
Cc1ccc(C(=O)C2=C(O)C(=O)N(c3nccs3)C2c2ccc(Cl)cc2)cc1 (stereo not shown) [Compound M28A6],56 ± 10,39 ± 3,,,,
Cc1ccc(C(=O)C2=C(O)C(=O)N(c3nccs3)C2c2ccc(F)cc2)cc1 (stereo not shown) [Compound M28A7],> 100,78 ± 10,,,,
O=C(C1=C(O)C(=O)N(c2nc3ccccc3s2)C1c1ccc2c(c1)OCO2)c1ccccc1 (stereo not shown) [Compound M28A8],57 ± 10,21 ± 10,,,,
CCOC(=O)c1sc(N2C(=O)C(O)=C(C(=O)c3ccccc3)C2c2ccc(F)cc2)nc1C (stereo not shown) [Compound M28A10],44 ± 4,21 ± 4,,,,
CCOc1ccc(C(=O)C2=C(O)C(=O)N(c3nccs3)C2c2ccc(OC)cc2)cc1 (stereo not shown) [Compound M28A11],> 100,90 ± 17,,,,
CCOC(=O)c1sc(N2C(=O)C(O)=C(C(=O)c3ccc(C)cc3)C2c2ccc(F)cc2)nc1C (stereo not shown) [Compound M28A18],> 100,33 ± 25,,,,
O=C(C1=C(O)C(=O)N(c2nc3ccccc3s2)C1c1cccnc1)c1ccc(Cl)cc1 (stereo not shown) [Compound M28A21],> 100,90 ± 10,,,,
O=C(C1=C(O)C(=O)N(c2nc3ccccc3s2)C1c1ccccn1)c1ccc(Cl)cc1 (stereo not shown) [Compound M28A22],> 100,83 ± 12,,,,
N=C1S/C(=C/c2ccc(-c3ccccc3C(=O)O)o2)C(=O)N1c1ccc2c(c1)OCO2 [Compound T36],12 ± 6,6.5 ± 1,,,,
O=C(O)CCCCCN1C(=O)C(O)=C(C(=O)c2ccc(Cl)cc2)C1c1ccc2c(c1)OCO2 (stereo not shown) [Compound T38],25,20,,,25,20
O=C(Cc1ccccc1)Nc1cc(C(=O)O)c(NC(=O)Cc2ccccc2)cc1C(=O)O [Compound X7],,,9,7,,
O=C(O)c1cc(NC(=O)c2cccc3ccccc23)c(C(=O)O)cc1NC(=O)c1cccc2ccccc12 [Compound X8],,,28,21,,
COc1ccc(C=C2SC(=S)N(CCC(=O)Nc3cccc(C(=O)O)c3)C2=O)cc1 [Compound X26],,,> 100,> 100,,
CC(=O)C1=C(O)C(=O)N(CC(=O)O)C1c1ccc(Br)cc1 (stereo not shown) [Compound X36],,,,,> 100,> 100
Cc1ccc(C2C(C(=O)c3ccc(Cl)cc3)=C(O)C(=O)N2CC(=O)O)cc1 (stereo not shown) [Compound X81],84 ± 23,69 ± 36,,,84,69
CCOC(=O)N1CCN(C(=O)CCN2C(=O)/C(=C/c3ccc(OC)c(OC)c3)SC2=S)CC1 [Compound X90],,,> 100,> 100,,
CCc1ccc(C=C2SC(=S)N(CC(=O)Nc3cccc(C(=O)O)c3)C2=O)cc1 [Compound X91],,,> 100,> 100,,
O=C(CCN1C(=O)C(=Cc2ccc3c(c2)OCO3)SC1=S)Nc1ccc(O)c(C(=O)O)c1 [Compound X94],,,15 ± 10,17 ± 11,,
CCOc1ccc(C=C2SC(=S)N(CCC(=O)Nc3cccc(C(=O)O)c3)C2=O)cc1 [Compound X95],,,93 ± 12,> 100,,

Structure (SMILES),"IC50 [1, 3] [µM]","IC50 [2, 4] [µM]","IC50 [1, 5] [µM]","IC50 [2, 6] [µM]","IC50 [1, 7] [µM]","IC50 [2, 8] [µM]"
Cc1ccc(C=C2SC(=S)N(CC(=O)Nc3cccc(C(=O)O)c3)C2=O)cc1 [Compound X97],,,98 ± 4,> 100,,
O=C(CN1C(=O)/C(=C2\SC(=S)N(CC(=O)Nc3ccc(C(=O)O)cc3)C2=O)SC1=S)Nc1ccc(C(=O)O)cc1 [Compound X102],,,59 ± 31,75,,
O=C(CN1C(=O)/C(=C2\SC(=S)N(CC(=O)Nc3ccc(O)cc3)C2=O)SC1=S)Nc1ccc(O)cc1 [Compound X103],,,59 ± 37,69,,
COc1cc(C(=O)Nc2ccc(O)c(C(=O)O)c2)cc(OC)c1OC [Compound X108],,,> 100,> 100,,
Cc1ccc(/C=C2\SC(=S)N(CCC(=O)Nc3ccc(S(=O)(=O)Nc4nccs4)cc3)C2=O)cc1 [Compound X124],,,83 ± 21,44 ± 16,,
O=C(O)c1ccc(S(=O)(=O)c2ccc3c(c2)C(=O)N(c2ccc(O)c(C(=O)O)c2)C3=O)cc1 [Compound X125],,,66 ± 6,44 ± 4,,
Cc1ccc2[nH]c(/C(C#N)=C\c3ccc(-c4ccc(C(=O)O)c(O)c4)o3)nc2c1 [Compound X132],,,16 ± 5,8 ± 1,,
COc1ccc2oc(=O)c(-c3csc(N/N=C/c4ccccc4O)n3)cc2c1 [Compound X143],,,,,30,10
COc1ccc2oc(=O)c(-c3csc(N/N=C/c4ccco4)n3)cc2c1 [Compound X144],,,,,78,29
Cc1ccc(C(=O)C2=C(O)C(=O)N(CCCn3ccnc3)C2c2ccc(Cl)cc2)cc1 (stereo not shown) [Compound X155],93 ± 12,67 ± 28,,,93,67
O=C(CCCN1C(=O)C(=Cc2cccs2)SC1=S)Nc1ccc(O)c(C(=O)O)c1 [Compound X169],,,44 ± 20,35 ± 16,,
CCc1ccc(C=C2SC(=S)N(CCC(=O)Nc3ccc(O)c(C(=O)O)c3)C2=O)cc1 [Compound X170],,,15 ± 3,11 ± 5,,
COc1cc(C=C2SC(=S)N(CC(=O)Nc3cc(Cl)ccc3O)C2=O)cc(OC)c1OC [Compound X171],,,32 ± 11,17 ± 2,,
O=C(CCN1C(=O)C(=Cc2cccs2)SC1=S)Nc1ccc(O)c(C(=O)O)c1 [Compound X172],,,38 ± 16,38 ± 16,,
COc1cc(C=C2SC(=S)N(CCC(=O)Nc3ccc(C(=O)O)cc3)C2=O)cc(OC)c1OC [Compound X173],,,97 ± 6,85 ± 15,,
O=C(CCN1C(=O)/C(=C/c2cccs2)SC1=S)Nc1ccc2ccccc2c1 [Compound X174],,,> 100,> 100,,
O=C(CCN1C(=O)C(=Cc2cccs2)SC1=S)Nc1cccc(O)c1 [Compound X177],,,> 100,> 100,,
CC(=Cc1ccccc1)C=C1SC(=S)N(CCC(=O)Nc2ccc(O)c(C(=O)O)c2)C1=O [Compound X185],,,36 ± 23,23 ± 3,,
O=C(CCN1C(=O)/C(=C/c2ccc3c(c2)OCO3)SC1=S)Nc1ccc2c(c1)OCO2 [Compound X187],,,97 ± 6,93 ± 12,,
O=C(CCN1C(=O)C(=Cc2ccc3c(c2)OCO3)SC1=S)Nc1ccc(C(=O)O)c(O)c1 [Compound X188],,,33 ± 23,23 ± 13,,
Cc1ccc(C=C2SC(=S)N(CC(=O)Nc3cc([N+](=O)[O-])ccc3O)C2=O)cc1 [Compound X191],,,84 ± 24,80 ± 18,,
